Laboratory results taken from patent publication US11584728B2, “Compositions and methods for the prevention and/or treatment of mitochondrial disease, including Friedreich's ataxia” (STEALTH BIOTHERAPEUTICS INC., priority 2019, dated 2023).
Like-named read-outs stand apart in the source and are kept apart here.

How the values were obtained:
[1] = tested on: HepG2 human hepatocarcinoma cells; assay: Rotenone ATP-Assay (Complex I by-pass); assay type: cell-based; details: for EC50: Homo sapiens, 1 h
Description: Example 18: Rotenone ATP-Assay
Introduction: • This assay has been adapted from Haefeli R H, Erb M, Gemperli A C, Robay D, Courdier Fruh I, et al. (2011) NQO1-Dependent Redox Cycling of Idebenone: Effects on Cellular Redox Potential and Energy Levels. PLoS ONE 6(3): e17963. HepG2 human hepatocarcinoma cells were co-incubated with the electron transport chain Complex I toxin rotenone +/−compounds of interest and the corresponding effect on ATP synthesis was measured with a bioluminescent substrate.
Assay Experimental: • In brief, HepG2 cells were plated at 25,000 cells per well in low glucose (1 gram/Liter) DMEM medium +10% fetal calf serum and incubated for 24 hours. The following day, the media was decanted and subsequently replaced with glucose free/serum free DMEM which has been supplemented with 50 micromolar rotenone and compound of interest. Serial dilutions of compound were prepared in 3× dilutions beginning at 25 micromolar. The cells were incubated for 60 minutes in a humidified tissue culture incubator. Following incubation, ATP levels were quantified via bioluminescent assay (Promega […]) and readings were captured on a standard microplate reader.
Calculations: • ATP bioluminescence is plotted versus the log of compound of interest and data were used to generate EC50 values. Curve fitting was performed using a sigmoidal dose response curve fit function (GraphPad Prism software).
Robustness of curve fit was assessed as a quality control measure, with an R squared value of at least 0.80 being required for a successful curve fit. Compounds of interest showing an increase in ATP bioluminescence relative to vehicle control were verified in an independent biological replicate of n=3 technical replicates per dose.
Discussion: • This assay is a direct measure of the ability of compounds of interest to restore ATP production under conditions of inhibition of Complex I of the mitochondrial electron transport chain. As the majority of ATP produced via the electron transport chain is thought to derive from Complex I activity, significant impairment in Complex I function has dire biological consequences. Of note, Complex I mutations are thought to drive pathophysiology in multiple mitochondrial diseases, including Leigh syndrome and Leber's Hereditary Optic Neuropathy (LHON), while diminished Complex I activity and the resultant attenuation of ATP production has been shown in neurodegenerative diseases, including Friedreich's Ataxia, Parkinson's Disease and Huntington's Disease.

GM03665 cells = assay: RSL3 Toxicity Assay (RSL3 Assay); assay type: cell-based, human; details: for EC50: Homo sapiens, GM03665 cells, RSL3 2 μM, 24 hours, MTT
Description: Example 19: RSL3 Toxicity Assay (RSL3 Assay)
In brief, GM03665 cells (Coriell Institute) were seeded in 96-well plates (Sarstedt) in DMEM cell culture media containing 10% Fetal Bovine serum and 1% Penicillin-Streptomycin (Pen-Strep) antibiotic mix at the amount of 2×10^4/mL (100 μL or 2×10^3 cells per well). Cells were left to rest overnight at 37° C. in a humidified atmosphere with 5% CO2 to allow attachment of the cells to the culture plate. Test compounds were prepared as DMSO stocks (10 mM) and were serially diluted in cell culture media to obtain 2× working solutions. Cell media was discarded and replaced by 50 μL of test compound solutions or cell media with vehicle for control wells. Within 15 minutes, 2× working solution (4 μM) of 1S,3R-RSL3 (CAS #1219810-16-8, Sigma-Aldrich) (diluted from 5 mM DMSO stock in cell culture media) was added. Final reaction volume was 100 μL and final DMSO concentration in reaction was kept below 0.2% (v/v) and equal in all wells. Final RSL3 concentration was 2 μM and test compound final concentrations in reaction were up to 1000 nM. After 24 hours of incubation cell viability was assessed by MTT test. MTT (Sigma-Aldrich) solution 1 mg/mL in 1×PBS (pH=7,4) was prepared 1 hour before the assay and filtered through Filtropur S 0.2 filters (Sarstedt). Cell media with test compounds was discarded and 100 μL of MTT solution was added to cells. The plates were incubated for 2 hours at +37° C. Thereafter, the MTT solution was removed and 100 μL of isopropanol was added to dissolve sediment. Absorption at 570 and 650 nm was measured using Hidex Sense microplate reader.

intact HepG2 cells = assay: Rotenone Oxygraph Assay (High-Resolution Respirometry of Intact HepG2 Cells); assay type: cell-based, human; details: rotenone 1 μM, compound 10 μM; for Percent increase in ATP (Rotenone Oxygraph Assay), Mean: Table 4; for Percent increase in ATP (Rotenone Oxygraph Assay), Mean / Rotenone Oxygraph Assay % Increase: intact HepG2 cells; for Rotenone Oxygraph Assay % Increase: Table 7
Description: Example 20: Rotenone Oxygraph Assay (High-Resolution Respirometry of Intact HepG2 Cells)
The Oxygraph-2k (O2k, OROBOROS INSTRUMENTS, Austria) was used for measurements of respiration of intact cells. The respirometry was performed in Dulbecco's Modified Eagle Medium (DMEM) high glucose without supplements. All experiments were performed at 37° C.
HepG2 cells (ATCC collection code HB-8065™) were cultured in 10 cm^2 culture dishes in DMEM high glucose medium supplemented with 10% fetal bovine serum (FBS) and 100 units/mL penicillin and 100 μg/mL streptomycin until approximately 90% confluence was reached. Immediately prior to performing the respirometric assay, the cells were washed with media without FBS, trypsinized and resuspended in DMEM high glucose without FBS.
The final concentration of intact cells in the O2k-chamber was 0.5·10^6/mL. After stabilization of respiration, the Complex I inhibitor, rotenone, at 1 μM final concentration was added to inhibit electron flux via Complex I. Then, compound to be tested was added at 10 μM final concentration, and the change in respiration rate of intact cells was monitored.

[2] = tested on: frataxin deficient fibroblasts (GM03665); assay: Frataxin Deficient Fibroblast Viability Assay (BSO Assay); details: Homo sapiens, 48 h
Nrf-2 = Nrf-2 Activation Assay (Nrf-2 Assay); assay type: cell-based, human; details: Table 7; GM03665 fibroblasts, 1 μM, 24 hours, qPCR of Nrf-2 responsive genes
Description: Example 21: Nrf-2 Activation Assay (Nrf-2 Assay)
This assay was developed internally and was designed to determine if the novel test compounds disclosed herein active Nrf-2 and thereby promote resolution of inflammation by the mechanism believed to be responsible for the activity of omaveloxolone.
Briefly, GM03665 Friedreich Ataxia patient fibroblasts were grown in 12 Well Plates (TC Cell+F) (Sarstedt, Nümbrecht Germany), at a density of 12×10^4 cells/per well in DMEM/F12 (Gibco, ThermoFisher Scientific, Waltham, Mass., USA) cell media supplemented with 10% FBS and 1% Pen/Strep. Cells were left to rest overnight at 37° C. in a humidified atmosphere with 5% CO2 to allow attachment of the cells to the culture plate. Before continuing assay visual inspection of each well was done by light microscopy to detect any possible bacterial and fungal contamination. […] After incubation, cell media was removed and total RNA from the cells was isolated using E.Z.N.A.® Total RNA Kit I (Omega Bio-tek, Norcross, Ga., USA) spin columns, and first-strand cDNA synthesis was carried out using a High Capacity cDNA Reverse Transcription Kit (Applied Biosystems™, Foster City, Calif.) following the manufacturer's instructions. qPCR analysis of gene expression was performed by mixing SYBR® Green Master Mix (Applied Biosystems™) with synthesized cDNA and forward and reverse primers. […] (60 cycles), and 95° C. for 60 seconds, followed by melt curve analysis at 72-95° C., 0.3° C./sec. The relative expression levels for each gene were calculated with the ΔΔCt method and normalized to the expression of REEP5 and SNRPD3 genes.

lipoxygenase-15 enzyme = lipoxygenase-15 enzyme (Glycine max (Soybean) (Glycine hispida), UniProt P08170); assay: Lipoxygenase-15 Assay (LO-15-Assay); assay type: biochemical; details: reduced (hydroquinone) form
[3] = HepG2 cells, 50 micromolar rotenone, 60 minutes, ATP bioluminescence, read-out: EC50 Rotenone ATP Assay
[4] = Table 3, mean of at least three measurements, nM printed in Table 7, read-out: RSL3 Assay EC50, Mean
[5] = Table 7, read-out: RSL3 Assay EC50
[6] = Table 7, HepG2 cells, 50 micromolar rotenone, 60 minutes, read-out: Rotenone ATP Assay EC50

Compound	EC50 [1, 3]	Rotenone ATP Assay EC50, nM ([1]; Table 7, HepG2 cells, 50 micromolar rotenone, 60 minutes)	EC50 (GM03665 cells; [4])	EC50 (GM03665 cells; [5])	Percent increase in ATP (Rotenone Oxygraph Assay), Mean (intact HepG2 cells)	Rotenone Oxygraph Assay % Increase (intact HepG2 cells)	Activity in the Rotenone Oxygraph assay, Complex I by-pass (in words) (intact HepG2 cells)	EC50 ([2]; read-out: BSO Assay)	EC50 ([2]; read-out: EC50 (nM) BSO Assay)	EC50 [1, 6]	Activity in both the BSO Assay and the Rotenone ATP Assay (in words) ([1]; circumvent BSO induced cell death and restore ATP production when Complex I is inhibited)	Nrf-2 Assay (Nrf-2)	Activity in the LO-15 assay (in words) (lipoxygenase-15 enzyme)	Activity in the RSL3 assay (in words) (GM03665 cells; protection of Friedreich's ataxia fibroblasts from RSL3)
CC(C)=CCC/C(C)=C/CC/C(C)=C/CC[C@@](C)(O)CCC1=C(C)C(=O)C(C)=C(C)C1=O [Vatiquinone, reference compound]	> 3000 nM	Inactive	56 nM	56 nM	Inactive	Inactive	inactive	44.3 nM	< 100 nM					
CC1=C(C)C(=O)C(CC[C@](C)(O)CC/C=C(\C)CC/C=C(\C)CCC=C2COC2)=C(C)C1=O [Compound E, 2-((R,6E,10E)-3-hydroxy-3,7,11-trimethyl-14-(oxetan-3-ylidene)tetradeca-6,10-dien-1-yl)-3,5,6-trimethylcyclohexa-2,5-diene-1,4-dione]	1000 to 3000 nM		73.2 nM	73.2 nM				65.1 nM	< 100 nM	2810 nM	possess both activities	Inactive	outside of the range of the assay	
CC1=C(C)C(=O)C(CC[C@@](C)(O)COCCC[Si](C)(C)C)=C(C)C1=O [Compound M, (R)-2-(3-hydroxy-3-methyl-4-(3-(trimethylsilyl)propoxy)butyl)-3,5,6-trimethylcyclohexa-2,5-diene-1,4-dione]	1000 to 3000 nM		41.2 nM	41.2 nM	56.6 +/− 11.3%	56.6 +/− 11.3%		61.2 nM		1340 nM		Inactive	best result	active
